Assay results as given in patent publication US11814519B2, “Nitric oxide-releasing 3D-printing compositions and uses thereof” (Virginia Commonwealth University, priority 2020, dated 2023).

How the values were obtained:
[1] = cited from earlier work
[2] = Optical images of a thin printed layer of donor-loaded silicone rubber soaked in phosphate buffered saline-EDTA (dissolution of donor particles); format: physicochemical; conditions: thin printed layer soaked in PBSE
Protocol: FIG. 4A-C is optical images of a thin layer of S-nitroso-N-acetylpenicillamine-doped silicone rubber before soaking (A) and after 24 h (B) and 48 h (C) of soaking in phosphate buffered saline-EDTA.
FIG. 7A-C is bright-field optical images of a thin layer of S-nitrosoglutathione-loaded silicon rubber before and after soaking in phosphate buffered saline-EDTA.

[3] = Solubility of the NO donor in solvents and in the silicone ink; format: physicochemical; conditions: silicone ink ingredients

| Compound | solvents in which the donor is soluble [1] | time required for dissolution of donor particles in the thin printed layer ([2]; optical images) | solubility in the silicone rubber ink [3] | water solubility relative to SNAP ([1]; water) | time for dissolution of donor particles in the thin printed layer ([2]; optical images (FIG. 7)) |
| --- | --- | --- | --- | --- | --- |
| CC(=O)N[C@H](C(=O)O)C(C)(C)SN=O (racemic) [SNAP, S-nitroso-N-acetylpenicillamine] | most soluble in organic solvents such as methanol and tetrahydrofuran | 3 days | not dissolved in the ink ingredients | – | – |
| N[C@@H](CCC(=O)N[C@@H](CSN=O)C(=O)NCC(=O)O)C(=O)O [GSNO, S-nitrosoglutathione] | only appreciably dissolved in water and DMSO | – | not soluble | much higher | dissolved within a day |
